{
  "source": "patent US20160303127A1",
  "about": "“COMBINATION THERAPY WITH C-MET AND EGFR ANTAGONISTS” (Genentech, Inc., priority 2008, published 2016)",
  "molecules": {"B1": {"name": "MetMAb: Anti-c-met monovalent monoclonal antibody MetMAb (rhuOA5D5v2) (WO2007/063816) (antibody, chains of the INN, looked up, V domains shown)", "VH": "EVQLVESGGGLVQPGGSLRLSCAASGYTFTSYWLHWVRQAPGKGLEWVGMIDPSNSDTRFNPNFKDRFTISADTSKNTAYLQMNSLRAEDTAVYYCATYRSYVTPLDYWGQGTLVTVSS", "VL": "DIQMTQSPSSLSASVGDRVTITCKSSQSLLYTSSQKNYLAWYQQKPGKAPKLLIYWASTRESGVPSRFSGSGSGTDFTLTISSLQPEDFATYYCQQYYAYPWTFGQGTKVEIK", "modifications": "one-armed"}},
  "key": {"NCI-H596 tumors": {"system": "NCI-H596 tumors", "assay": "Combination efficacy of MetMAb with erlotinib in the NCI-H596 hu-HGF-Tg-C3H-SCID xenograft model", "format": "in vivo", "conditions": "NCI-H596 tumors in hu-HGF-Tg-C3H-SCID mice, MetMAb 30 mg/kg IP once, erlotinib 150 mg/kg PO QD x2 weeks; for reduction in tumor growth compared to the vehicle control: day 20", "method": "Test Material. Anti-c-met monovalent monoclonal antibody MetMAb (rhuOA5D5v2) was provided by the Antibody Engineering Department at Genentech, Inc., in a clear liquid form at 10.6 mg/ml. The vehicle was 10 mM histidine succinate, 4% trehalose dihydrate, 0.02% polysorbate 20, pH 5.7. Erlotinib (TARCEVA™) was provided by OSI Pharmaceuticals to the Pharmaceutics Department at Genentech and was weighed out along with a sufficient amount of vehicle (methylcellulose tween (MCT)). All material was shipped from Genentech, Inc. to the Van Andel Research Institute (VARI; Grand Rapids, Mich.) and was formulated prior to animal treatments. Materials were stored in a refrigerator set to maintain a temperature range of 4° C. to 8° C. The NCI-H596 cell line was obtained from American Type Culture collection (Manassas, Va.).\nSpecies. Forty human HGF transgenic C3H-SCID mice (hu-HGF-Tg-C3H-SCID) were obtained from the in-house colony at the Van Andel Research Institute (VARI; Grand Rapids, Mich.). Five C3H-SCID mice were obtained from Jackson Laboratories. Animals were 4-6 weeks old and weighed 21-22 grams each. Mice were acclimated to study conditions for at least three days prior to tumor cell inoculations. Mice were housed in a shower-in barrier facility. Animals were housed in ventilated caging systems in rooms with filters supplying High-Efficiency Particulate Air (HEPA). Only animals that appeared to be healthy and were free of obvious abnormalities were used for the study.\nStudy design. As most HGF responsive tumors are driven in a paracrine fashion, a xenograft model that models paracrine driven growth was selected. Mouse HGF is a poor ligand for human c-met leading to a low biological response of human c-met expressing cells lines to mouse HGF (Bhargava, M., et al., 1992; Rong, S., et al., 1992). […]\nThe NCI-H596 cell line bears a mutated form of the c-met gene lacking exon 14 that encodes a binding site for the E3 ubiquitin ligase Cbl (Kong-Beltran, M., 2006). […] The responsiveness of NCI-H596 can also be seen in vivo, as the cell line readily form tumors in HGF-Tg-SCID mice (expressing human HGF, as noted above), but will not form tumors in immunocompromised mice lacking human HGF (nu/nu nude mice or SCID mice). […]\nNCI-H596 cells were cultured in growth media that consisted of RPMI 1640 media (Invitrogen), 2 mM L-glutamine, and 10% fetal bovine serum. […] A subset of cells was counted by trypan blue exclusion and the remainder of the cells was resuspended in 100 μl of sterile 1× PBS to a concentration of 5×10^6 cells per milliliter.\nMice were prepared for inoculation by shaving the dorsal area with clippers. […] Tumors were monitored until they reached a mean volume of 100 mm^3. […]"}, "ERK-1/2": {"system": "ERK-1/2", "assay": "phospho-ERK-1/2 in NCI-H596 hu-HGF-Tg-SCID xenograft tumors (immunoblot)", "format": "in vivo, human", "conditions": "MetMAb 30 mg/kg 24 h, erlotinib 150 mg/kg 6 h prior to harvest, average of 5 animals", "method": "Tumors were allowed to grow to 200-300 mm^3 prior to treatment. Dosing was performed as described in Table 8. Briefly, MetMAb (30 mg/kg) or MetMAb buffer was dosed at time zero hours (0 hr) and methylcellulose tween vehicle (MCT) or erlotinib (150 mg/kg) was dosed at time 18 hours (18 hr). Mice were euthanized and tumors and plasma collected at time 24 hours (24 hr). Tumors were snap frozen in liquid nitrogen and then kept at −70° C. until they were processed for immunoprecipitation and immunoblotting.\nImmunoprecipitations and Immunoblotting: To process tumors for protein analysis, tumors were first homogenized using a glass dounce with lysis buffer (Cell Signaling Technology, Inc., Danvers, Mass.), supplemented with 1 mM PMSF, additional protease inhibitor cocktail, and phosphatase inhibitor cocktail I and II (Sigma, Inc., St. Louis, Mo.). Lysates were incubated on ice for one hour and then centrifuged at 14,000×g for five minutes and supernatants collected. Protein concentrations were determined using the BCA™ Protein Assay Kit (Pierce, Inc., Rockford, Ill.) and samples were immunoblotted. […] Samples were then analyzed by SDS-PAGE and immunoblotting. […] Immunoblots were imaged and phospho-protein levels were quantified and normalized to total protein levels (e.g. pEGFR over total EGFR) using an Odyssey imager (LI-COR Biosciences, Lincoln, Nebr.). […]"}},
  "note": "Where “and” joins values, the source holds several entries; their conditions need not be identical. Equal values may be shown once.",
  "data": [
    {"molecule": "C#Cc1cccc(Nc2ncnc3cc(OCCOC)c(OCCOC)cc23)c1", "note": "[erlotinib, N-(3-ethynylphenyl)-6,7-bis(2-methoxyethoxy)-4-quinazolinamine]", "values": [
      {"measurement": "reduction in tumor growth compared to the vehicle control", "setting": "NCI-H596 tumors", "value": "statistically insignificant reduction"},
      {"measurement": "mean time to tumor doubling (TTD)", "setting": "NCI-H596 tumors", "value": "9.5 (±1.2) days"},
      {"measurement": "pERK1/2/total ERK1/2", "setting": "ERK-1/2; listed as Erlotinib", "value": "39% (+/−8.9%) % of vehicle control and 39 (±8.9) % of vehicle control"}
    ]},
    {"molecule": "B1", "values": [
      {"measurement": "reduction in tumor growth compared to the vehicle control", "setting": "NCI-H596 tumors", "value": 67, "unit": "%"},
      {"measurement": "mean time to tumor doubling (TTD)", "setting": "NCI-H596 tumors", "value": "17.8 (±2.2) days"},
      {"measurement": "pERK1/2/total ERK1/2", "setting": "ERK-1/2", "value": "72% (+/−40.3%) % of vehicle control and 72 (±40.3) % of vehicle control"}
    ]}
  ]
}
